Measured values from patent US7138361B2, “Herbicidal heterocycles” (E. I. du Pont de Nemours and Company, priority 2000, dated 2006).

What was measured:
Assay type in all cases: in vivo
[1] = tested on: barnyardgrass (Echinochloa crus-galli); assay: Test C flooded paddy test; settings: for Barnyardgrass plant response rating: Flooded Paddy, scale 0 to 100, 0 no effect, 100 complete control; for Plant response rating, Barnyardgrass: flooded paddy test, scale 0 to 100 (0 no effect, 100 complete control)
Summary of the method: (§1)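 Each species was cultivated to 2 leaves in flooded paddy pots, then treated. After a greenhouse period of 12–14 days, the plants were scored visually relative to controls from 0 (no effect) to 100 (complete control).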

[2] = tested on: rice (Oryza saliva); assay: Test C flooded paddy test; settings: for Rice plant response rating: Flooded Paddy, scale 0 to 100, 0 no effect, 100 complete control
Summary of the method: as §1

[3] = tested on: goosegrass (Eleusine indica); assay: Test C preemergence
Summary of the method: (§2)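 Compounds in non-phytotoxic solvent with surfactant applied preemergence to planted seeds and postemergence to plants at 1- to 4-leaf stage (2–18 cm). Kept in greenhouse 12–14 days, then visually rated against controls on a 0 (no effect) to 100 (complete control) scale.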

[4] = tested on: Nightshade; assay: Test C preemergence
[5] = tested on: soybean (Glycine max); assay: Test C preemergence
Summary of the method: as §2

[6] = tested on: Surinam grass (Brachiaria decumbens); assay: Test C preemergence
Summary of the method: as §2

[7] = tested on: yellow nutsedge (Cyperus esculentus); assay: Test C preemergence
Summary of the method: as §2

[8] = tested on: cocklebur (Xanthium strumarium); assay: Test C preemergence
Summary of the method: as §2

[9] = tested on: woolly cupgrass (Eriochloa villosa); assay: Test C preemergence
Summary of the method: as §2

[10] = tested on: pigweed (Amaranthus retroflexus); assay: Test C preemergence
Summary of the method: as §2

[11] = tested on: Sunflower; assay: Test C preemergence
[12] = tested on: bermudagrass (Cynodon dactylon); assay: Test C preemergence
Summary of the method: as §2

[13] = tested on: common ragweed (Ambrosia elatior); assay: Test C preemergence
Summary of the method: as §2

[14] = tested on: kochia (Kochia scoparia); assay: Test C preemergence
Summary of the method: as §2

[15] = tested on: morningglory (Ipomoea hederacea); assay: Test C preemergence
Summary of the method: as §2

[16] = tested on: lambsquarters (Chenopodium album); assay: Test C preemergence
Summary of the method: as §2

[17] = tested on: johnsongrass (Sorghum halepense); assay: Test C preemergence
Summary of the method: as §2

[18] = tested on: crabgrass (Digitaria sanguinalis); assay: Test C preemergence
Summary of the method: as §2

[19] = tested on: giant foxtail (Setaria faberii); assay: Test C preemergence
Summary of the method: as §2

[20] = tested on: corn (Zea mays); assay: Test C preemergence
Summary of the method: as §2

[21] = tested on: velvetleaf (Abutilon theophrasti); assay: Test C preemergence
Summary of the method: as §2

[22] = tested on: Sunflower; assay: Test C preemergence; settings: Rate 250 g/ha, visual evaluation after 12 to 14 days
[23] = Preemergence, Rate 500 g/ha, scale 0 to 100
[24] = Rate 62 g/ha, scale 0 to 100, 0 no effect, 100 complete control
[25] = preemergence, Rate 31 g/ha, scale 0 to 100
[26] = preemergence, Rate 250 g/ha, visual evaluation after 12 to 14 days
[27] = preemergence, Rate 125 g/ha, scale 0 to 100, 0 no effect, 100 complete control

CC(C)(C)c1ccn(C2CCN(c3cccc(OC(F)(F)F)c3)C2=O)n1 (stereo not drawn) [Compound 49]
60: Plant response rating, Cupgrass, Woolly [9, 27]
70: Plant response rating (0 to 100), Surinam grass [6, 26] | Plant response rating (0 to 100), Cupgrass, Woolly [9, 26] | Plant response rating, Pigweed [10, 25]
30: Rice plant response rating ([2]; Rate 250 g/ha) | Plant response rating, Nightshade ([4]; Rate 125 g/ha, scale 0 to 100, 0 no effect, 100 complete control) | Plant response rating, Nutsedge [7, 25] | Plant response rating, Cupgrass, Woolly [9, 24] | Plant response rating (0 to 100), Ragweed, Common [13, 26] | Plant response rating, Ragweed, Common [13, 27] | Plant response rating, Morningglory [15, 23] | Plant response rating (0 to 100), Velvetleaf [21, 26] | Plant response rating (0 to 100), Sunflower [22]
0: Plant response rating, Goosegrass [3, 25] | Plant response rating, Nightshade ([4]; Rate 31 g/ha, scale 0 to 100) | Plant response rating, Nightshade [4, 24] | Plant response rating, Soybean [5, 24] | Plant response rating, Soybean [5, 25] | Plant response rating, Surinam grass [6, 24] | Plant response rating, Surinam grass [6, 25] | Plant response rating, Surinam grass [6, 27] | Plant response rating, Nutsedge [7, 23] | Plant response rating (0 to 100), Nutsedge [7, 26] | Plant response rating, Cocklebur [8, 24] | Plant response rating, Cocklebur [8, 25] | Plant response rating (0 to 100), Cocklebur [8, 26] | Plant response rating, Cocklebur [8, 27] | Plant response rating, Bermudagrass [12, 25] | Plant response rating, Ragweed, Common [13, 24] | Plant response rating, Ragweed, Common [13, 25] | Plant response rating, Morningglory [15, 24] | Plant response rating, Morningglory [15, 25] | Plant response rating (0 to 100), Morningglory [15, 26] | Plant response rating, Morningglory [15, 27] | Plant response rating, Johnsongrass [17, 24] | Plant response rating, Johnsongrass [17, 25] | Plant response rating, Johnsongrass [17, 27] | Plant response rating, Crabgrass [18, 25] | Plant response rating, Foxtail, Giant [19, 24] | Plant response rating, Foxtail, Giant [19, 25] | Plant response rating, Corn [20, 23] | Plant response rating, Corn [20, 24] | Plant response rating, Corn [20, 25] | Plant response rating (0 to 100), Corn [20, 26] | Plant response rating, Corn [20, 27] | Plant response rating, Velvetleaf [21, 24] | Plant response rating, Velvetleaf [21, 25] | Plant response rating, Velvetleaf [21, 27]
40: Plant response rating, Soybean [5, 27] | Plant response rating, Nutsedge [7, 24] | Plant response rating, Velvetleaf [21, 23]
50: Plant response rating (0 to 100), Soybean [5, 26] | Plant response rating, Nutsedge [7, 27] | Plant response rating, Kochia [14, 25] | Plant response rating (0 to 100), Johnsongrass [17, 26]
100: Barnyardgrass plant response rating ([1]; Rate 250 g/ha) | Barnyardgrass plant response rating ([1]; Rate 500 g/ha) | Plant response rating, Barnyardgrass ([1]; Rate 62 g/ha) | Plant response rating, Barnyardgrass ([1]; Rate 125 g/ha) | Plant response rating, Goosegrass [3, 23] | Plant response rating, Goosegrass [3, 24] | Plant response rating (0 to 100), Goosegrass [3, 26] | Plant response rating, Goosegrass [3, 27] | Plant response rating, Cupgrass, Woolly [9, 23] | Plant response rating, Pigweed [10, 23] | Plant response rating, Pigweed [10, 24] | Plant response rating (0 to 100), Pigweed [10, 26] | Plant response rating, Pigweed [10, 27] | Plant response rating, Bermudagrass [12, 23] | Plant response rating, Bermudagrass [12, 24] | Plant response rating (0 to 100 where 0 is no effect and 100 is complete control), Bermudagrass [12, 26] | Plant response rating, Bermudagrass [12, 27] | Plant response rating, Kochia [14, 23] | Plant response rating (0 to 100), Kochia [14, 26] | Plant response rating, Lambsquarters [16, 23] | Plant response rating, Lambsquarters [16, 24] | Plant response rating, Lambsquarters [16, 25] | Plant response rating (0 to 100), Lambsquarters [16, 26] | Plant response rating, Lambsquarters [16, 27] | Plant response rating, Crabgrass [18, 23] | Plant response rating, Crabgrass [18, 24] | Plant response rating (0 to 100), Crabgrass [18, 26] | Plant response rating, Crabgrass [18, 27] | Plant response rating, Foxtail, Giant [19, 23] | Plant response rating (0 to 100), Foxtail, Giant [19, 26] | Plant response rating, Foxtail, Giant [19, 27]
90: Rice plant response rating ([2]; Rate 500 g/ha) | Plant response rating, Nightshade ([4]; Rate 500 g/ha, scale 0 to 100) | Plant response rating, Ragweed, Common [13, 23] | Plant response rating, Kochia [14, 24] | Plant response rating, Kochia [14, 27] | Plant response rating, Johnsongrass [17, 23]
80: Plant response rating, Soybean [5, 23] | Plant response rating, Surinam grass [6, 23] | Plant response rating, Sunflower ([11]; Rate 500 g/ha, scale 0 to 100)
20: Plant response rating, Rice ([2]; flooded paddy test, Rate 62 g/ha, scale 0 to 100 (0 no effect, 100 complete control)) | Plant response rating, Cocklebur [8, 23] | Plant response rating, Cupgrass, Woolly [9, 25] | Plant response rating, Sunflower [11, 24]
